Test results reported in patent US20190343801A1, “COMPOSITIONS AND METHODS FOR CONTROLLING NATURAL KILLER CELL ACTIVATION AND FUNCTION” (BAR ILAN UNIVERSITY, priority 2017, published 2019).
Structures can show the parent of a compound that is named as a salt.

What was measured:
Format in all cases: cell-based
SHP-1 = assay: PTP assay: SHP-1 catalytic activity (pNPP hydrolysis) after treatment of NK-target cell conjugates; conditions: inhibited NK cells (YTS-2DL1 + 221-Cw4), untreated 100±2.8%; 1 μM JAS, 25 μM Y-27
Experimental: YTS-2DL1 cells were pretreated with 25 μM Y-27 or left untreated. Cells were incubated at 37° C. with target cells for 5 min, 1 μM of JAS was added, and samples were incubated for 5 minutes before lysis. IP of SHP-1 was performed, and precipitates were incubated with pNpp. SHP-1 activity was determined by measuring absorbance at 405 nm. The graph represents rates of SHP-1 catalytic activity from three independent experiments.
In FIG. 8E, YTS-2DL1 cells were incubated at 37° C. with 221-Cw4 or Cw7 cells for 5 min, treated with 0.5 μM of CytD or left untreated, and SHP-1 activity was determined as detailed in the Materials and Methods. Graph summarizing percent of relative SHP-1 catalytic activity obtained by four independent experiments. Data are means±SEM.
SHP-1 catalytic activity was determined by measuring the hydrolysis of the exogenous substrate p-Nitrophenyl Phosphate (pNPP) by SHP-1, as previously described. NK cells (2-5×10^6) were incubated with target cells at ratio of 1:1, activated as described above, and lysed with passive ice-cold lysis buffer (1% Brij, 1% n-Octyl-b-D-glucoside, 50 mM Tris-HCl, pH 7.4, 150 mM NaCl, 5 mM ethylenediaminetetraacetic acid, and complete protease inhibitor tablets). Cell lysates were subjected to IP with anti-SHP-1 antibody. […] Reactions were terminated by adding 800 μl 1M NaOH, and SHP-1 activity was determined by measuring absorbance at 405 nm.

SHP-1 conformation = assay: YFP-SHP1-CFP FRET sensor analysis of SHP-1 conformation in YTS cells; conditions: inhibitory NKIS (221-Cw4), untreated 11.5±2.5%; 1 μM JAS, 25 μM Y-27
Experimental: Active “open” conformation of SHP-1 results in a large distance between the two fluorescent proteins with no FRET signal. The inactivated, “closed”, conformation of SHP-1 brings the N′- and C′-termini into proximity resulting in high FRET efficiency.
YTS-2DL1 cells transiently expressing YFP-SHP1-CFP were treated with 25 μM Y-27 or left untreated. Cells were incubated on slides with 221-Cw4 or Cw7 target cells expressing mCherry, following 5 min of conjugation at 37° C., cells were treated with 1 μM JAS, and incubated for 5 min before fixation. FRET analysis was performed (see Experimental procedures). […]
FRET was measured by the donor-sensitized acceptor fluorescence technique. Briefly, three sets of filters were used: one optimized for donor fluorescence (excitation, 458 nm, and emission, 465 to 510 nm), a second for acceptor fluorescence (excitation, 514 nm, and emission, 530 to 600 nm), and a third for FRET (excitation, 458 nm; emission, 530 to 600 nm).
FRET correction was performed as previously described. In brief, the non-FRET components were calculated and removed using calibration curves derived from images of single-labeled CFP- or YFP-expressing cells. […] A calibration curve was derived that defined the amount of CFP fluorescence seen in the FRET image as a function of the fluorescence in the CFP image. […]

[1] = tested on: myosin light chain (MLC) phosphorylation on Serine 19; assay: Immunoblot of myosin light chain phosphorylation with anti-pMLC (Ser19); conditions: 25 μM Y-27 for 15 min
Experimental: YTS-2DL1 cells were treated with 25 μM of Y-27 for 15 min at 37° C., or left untreated. Cells were incubated at 37° C. with […] target cells for 5 min, 1 μM of JAS was added, and cells were incubated for 5 min. Cell lysates were analyzed by IB for phosphorylation of myosin light chain using anti-pMLC (Ser19) antibodies.
For analysis of whole cell lysates, 1-10×10^5 cells were used, and for IP experiments, 10-15×10^6 cells were used. Protein A/G plus-Agarose beads (Santa Cruz Biotechnology) were used for IP. Protein samples were resolved with sodium dodecyl sulfate-polyacrylamide gel electrophoresis (SDS-PAGE), transferred to nitrocellulose membrane, and immunoblotted with the appropriate primary antibodies. Immunoreactive proteins were detected with either anti-mouse or anti-rabbit horseradish peroxidase-coupled secondary antibody followed by detection by enhanced chemiluminescence (PerkinElmer).

Question: With `C[C@@H](N)C1CCC(C(=O)Nc2ccncc2)CC1` (stereo partly drawn) [Formula Y-27, 4-[(1R)-1-aminoethyl]-N N-4-pyridinyl-trans-cyclohexanecarboxamide, dihydrochloride] as the compound, how does the SHP-1 catalytic activity (SHP-1) read?
Answer: 66.4±1.1%

Question: What about the FRET efficiency (SHP-1 conformation) of the same compound?
Answer: 23.2±1.3%

Question: And the “MLC phosphorylation (pMLC S19)” value [1]?
Answer: significant reduction in phosphorylation
